We go through 15 compounds from US20240116985A1, “STAPLED PEPTIDES AND METHODS THEREOF” (priority 2020, published 2024).

The target of this assay is T1, full-length beta-Catenin (Uniprot ID P35222) (Homo sapiens, UniProt P35222).
T1 construct: 10 nM full-length beta-Catenin (Uniprot ID P35222)
T1 sequence (P35222 1-781): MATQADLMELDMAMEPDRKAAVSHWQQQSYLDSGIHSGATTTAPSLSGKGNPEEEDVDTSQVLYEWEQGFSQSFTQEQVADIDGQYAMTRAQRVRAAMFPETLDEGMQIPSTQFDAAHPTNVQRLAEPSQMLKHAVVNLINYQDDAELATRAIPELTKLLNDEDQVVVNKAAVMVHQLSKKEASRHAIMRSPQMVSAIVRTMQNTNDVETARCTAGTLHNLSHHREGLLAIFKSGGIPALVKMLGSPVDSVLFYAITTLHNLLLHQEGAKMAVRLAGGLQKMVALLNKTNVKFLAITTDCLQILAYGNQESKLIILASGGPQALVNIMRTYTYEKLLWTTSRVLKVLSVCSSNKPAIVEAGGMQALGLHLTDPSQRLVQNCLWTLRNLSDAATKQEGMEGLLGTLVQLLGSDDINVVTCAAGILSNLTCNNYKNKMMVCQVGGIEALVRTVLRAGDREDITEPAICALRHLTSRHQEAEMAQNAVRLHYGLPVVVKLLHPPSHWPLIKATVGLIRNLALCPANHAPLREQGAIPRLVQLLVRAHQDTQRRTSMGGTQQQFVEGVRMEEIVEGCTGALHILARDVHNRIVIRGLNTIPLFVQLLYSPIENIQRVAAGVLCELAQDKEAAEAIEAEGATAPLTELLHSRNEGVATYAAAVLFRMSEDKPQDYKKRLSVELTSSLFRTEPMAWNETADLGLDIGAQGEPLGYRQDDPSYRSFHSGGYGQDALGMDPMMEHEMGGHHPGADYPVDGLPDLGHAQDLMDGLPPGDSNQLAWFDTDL
Description: Fluorescence polarization IC50 (beta-catenin / 5FAM-TCF4 10-53 competition). To be noted: fluorescence polarization; read-out: beta-Catenin FP IC50. It is filed as binding.

Turning to `CC(=O)N1CCC[C@]12CC=CCCCC1(CCCC=CCCCOC(=O)N3CC[C@@](C(=O)N[C@@H](Cc4ccsc4)C(=O)N[C@@H](Cc4csc5ccccc45)C(=O)N[C@@H](CCC(N)=O)C(N)=O)(C3)NC(=O)[C@H](CC(C)C)NC(=O)[C@H](Cc3ccccc3)NC(=O)[C@H](C)NC(=O)[C@H](C)NC(=O)[C@H](CN3CCC[C@@H](C(=O)O)C3)NC(=O)[C@H](CC(=O)O)NC1=O)NC(=O)[C@H](CC(C)(C)C)NC(=O)[C@H](CC(=O)O)NC2=O` (stereo partly drawn) [I-1967, Ac-PL3-Asp-Npg-B5-Asp-R3COOPipA-Ala-Ala-Phe-Leu-PyrS2-3Thi-BztA-Gln-NH2], the IC50 was found to be 0.014 µM.
`CC(=O)N1CCC[C@]12CC=CCCCC1(CCCC=CCCCOC(=O)N3CC[C@@](C(=O)N[C@@H](Cc4ccsc4)C(=O)N[C@@H](Cc4csc5ccccc45)C(=O)N[C@@H](CCC(N)=O)C(N)=O)(C3)NC(=O)[C@H](CC(C)C)NC(=O)[C@H](Cc3ccccc3)NC(=O)[C@H](C)NC(=O)[C@H](C)NC(=O)[C@H](CN3CCCC[C@H]3C(=O)O)NC(=O)[C@H](CC(=O)O)NC1=O)NC(=O)[C@H](CC(C)(C)C)NC(=O)[C@H](CC(=O)O)NC2=O` (stereo partly drawn) [I-1968, Ac-PL3-Asp-Npg-B5-Asp-S2COOPipA-Ala-Ala-Phe-Leu-PyrS2-3Thi-BztA-Gln-NH2]: the IC50 is 0.029 µM.
To `CC(=O)N1CCC[C@]12CC=CCCCC1(CCCC=CCCCOC(=O)N3CC[C@@](C(=O)N[C@@H](Cc4ccsc4)C(=O)N[C@@H](Cc4csc5ccccc45)C(=O)N[C@@H](CCC(N)=O)C(N)=O)(C3)NC(=O)[C@H](CC(C)C)NC(=O)[C@H](Cc3ccccc3)NC(=O)[C@H](C)NC(=O)[C@H](C)NC(=O)[C@H](CN3CCCC[C@@H]3C(=O)O)NC(=O)[C@H](CC(=O)O)NC1=O)NC(=O)[C@H](CC(C)(C)C)NC(=O)[C@H](CC(=O)O)NC2=O` (stereo partly drawn) [I-1969, Ac-PL3-Asp-Npg-B5-Asp-R2COOPipA-Ala-Ala-Phe-Leu-PyrS2-3Thi-BztA-Gln-NH2] belongs 0.049 µM; to `CC(=O)N1CCC[C@]12CC=CCCC1(CCC=CCCOC(=O)N3CC[C@@](C(=O)N[C@@H](Cc4ccsc4)C(=O)N[C@@H](Cc4csc5ccccc45)C(=O)N[C@@H](CCC(N)=O)C(N)=O)(C3)NC(=O)[C@H](CC(C)C)NC(=O)[C@H](Cc3ccccc3)NC(=O)[C@H](C)NC(=O)[C@H](C)NC(=O)[C@H](CC(=O)O)NC(=O)[C@H](CC(=O)O)NC1=O)NC(=O)[C@H](CC(C)(C)C)NC(=O)[C@H](CC(=O)O)NC2=O` (stereo partly drawn) [I-1970, Ac-PL3-Asp-Npg-B4-Asp-Asp-Ala-Ala-Phe-Leu-PyrS1-3Thi-BztA-Gln-NH2], 0.441 µM; to `CC(=O)N1CCC[C@]12CC=CCCC1(CCC=CCCCOC(=O)N3CC[C@@](C(=O)N[C@@H](Cc4ccsc4)C(=O)N[C@@H](Cc4csc5ccccc45)C(=O)N[C@@H](CCC(N)=O)C(N)=O)(C3)NC(=O)[C@H](CC(C)C)NC(=O)[C@H](Cc3ccccc3)NC(=O)[C@H](C)NC(=O)[C@H](C)NC(=O)[C@H](CC(=O)O)NC(=O)[C@H](CC(=O)O)NC1=O)NC(=O)[C@H](CC(C)(C)C)NC(=O)[C@H](CC(=O)O)NC2=O` (stereo partly drawn) [I-1971, Ac-PL3-Asp-Npg-B4-Asp-Asp-Ala-Ala-Phe-Leu-PyrS2-3Thi-BztA-Gln-NH2], 0.475 µM.
With `CC(=O)N1CCC[C@]12CC=CCCC1(CCC=CCCCOC(=O)N3CC[C@@](C(=O)N[C@@H](Cc4ccsc4)C(=O)N[C@@H](Cc4csc5ccccc45)C(=O)N[C@@H](CCC(N)=O)C(N)=O)(C3)NC(=O)[C@H](CC(C)C)NC(=O)[C@H](Cc3ccccc3)NC(=O)[C@H](C)NC(=O)[C@H](C)NC(=O)[C@H](CC(=O)O)NC(=O)[C@H](CC(=O)O)NC1=O)NC(=O)[C@H](CC(C)(C)C)NC(=O)[C@H](CC(=O)O)NC2=O` (stereo partly drawn) [I-1972, Ac-PL3-Asp-Npg-B4-Asp-Asp-Ala-Ala-Phe-Leu-PyrS2-3Thi-BztA-Gln-NH2], the IC50 was found to be 0.689 µM.
With `CC(=O)N1CCC[C@]12CC=CCCC1(CCC=CCCCCOC(=O)N3CC[C@@](C(=O)N[C@@H](Cc4ccsc4)C(=O)N[C@@H](Cc4csc5ccccc45)C(=O)N[C@@H](CCC(N)=O)C(N)=O)(C3)NC(=O)[C@H](CC(C)C)NC(=O)[C@H](Cc3ccccc3)NC(=O)[C@H](C)NC(=O)[C@H](C)NC(=O)[C@H](CC(=O)O)NC(=O)[C@H](CC(=O)O)NC1=O)NC(=O)[C@H](CC(C)(C)C)NC(=O)[C@H](CC(=O)O)NC2=O` (stereo partly drawn) [I-1973, Ac-PL3-Asp-Npg-B4-Asp-Asp-Ala-Ala-Phe-Leu-PyrS3-3Thi-BztA-Gln-NH2], the IC50 came to 0.797 µM.
In the case of `CC(=O)N1CCC[C@]12CCCCCC1(CCCCCCOC(=O)N3CC[C@@](C(=O)N[C@@H](Cc4ccsc4)C(=O)N[C@@H](Cc4csc5ccccc45)C(=O)N[C@@H](CCC(N)=O)C(N)=O)(C3)NC(=O)[C@H](CC(C)C)NC(=O)[C@H](Cc3ccccc3)NC(=O)[C@H](C)NC(=O)[C@H](C)NC(=O)[C@H](CC(=O)O)NC(=O)[C@H](CC(=O)O)NC1=O)NC(=O)[C@H](CC(C)(C)C)NC(=O)[C@H](CC(=O)O)NC2=O` (stereo partly drawn) [I-1974, Ac-PL3-Asp-Npg-B4-Asp-Asp-Ala-Ala-Phe-Leu-PyrS1-3Thi-BztA-Gln-NH2], the IC50 was determined as 0.324 µM.
With `CC(=O)N1CCC[C@]12CCCCCC1(CCCCCCCOC(=O)N3CC[C@@](C(=O)N[C@@H](Cc4ccsc4)C(=O)N[C@@H](Cc4csc5ccccc45)C(=O)N[C@@H](CCC(N)=O)C(N)=O)(C3)NC(=O)[C@H](CC(C)C)NC(=O)[C@H](Cc3ccccc3)NC(=O)[C@H](C)NC(=O)[C@H](C)NC(=O)[C@H](CC(=O)O)NC(=O)[C@H](CC(=O)O)NC1=O)NC(=O)[C@H](CC(C)(C)C)NC(=O)[C@H](CC(=O)O)NC2=O` (stereo partly drawn) [I-1975, Ac-PL3-Asp-Npg-B4-Asp-Asp-Ala-Ala-Phe-Leu-PyrS2-3Thi-BztA-Gln-NH2], the IC50 was found to be 0.745 µM.
On to `CC(=O)N1CCC[C@]12CCCCCC1(CCCCCCCCOC(=O)N3CC[C@@](C(=O)N[C@@H](Cc4ccsc4)C(=O)N[C@@H](Cc4csc5ccccc45)C(=O)N[C@@H](CCC(N)=O)C(N)=O)(C3)NC(=O)[C@H](CC(C)C)NC(=O)[C@H](Cc3ccccc3)NC(=O)[C@H](C)NC(=O)[C@H](C)NC(=O)[C@H](CC(=O)O)NC(=O)[C@H](CC(=O)O)NC1=O)NC(=O)[C@H](CC(C)(C)C)NC(=O)[C@H](CC(=O)O)NC2=O` (stereo partly drawn) [I-1976, Ac-PL3-Asp-Npg-B4-Asp-Asp-Ala-Ala-Phe-Leu-PyrS3-3Thi-BztA-Gln-NH2], for which the IC50 was 0.15 µM.
As for `CC(=O)N1CCC[C@]12CC=CCCCC[C@@](C)(C(=O)N[C@@H](CC(=O)O)C(=O)N[C@@H](CC(=O)O)C(=O)N[C@@H](C)C(=O)N[C@@H](C)C(=O)N[C@@H](Cc1ccccc1)C(=O)N[C@@H](CC(C)C)C(=O)NC(C)(C)C(=O)N[C@@H](Cc1ccsc1)C(=O)N[C@@H](Cc1csc3ccccc13)C(=O)N[C@@H](CCC(N)=O)C(N)=O)NC(=O)[C@H](CC(C)(C)C)NC(=O)[C@H](CC(=O)O)NC2=O` [I-1977, Ac-PL3-Asp-Npg-S6-Asp-Asp-Ala-Ala-Phe-Leu-Aib-3Thi-BztA-Gln-NH2], the IC50 turned out to be 4.28 µM.
`CC(=O)N1CCC[C@]12CCCCCCC[C@@](C)(C(=O)N[C@@H](CC(=O)O)C(=O)N[C@@H](CC(=O)O)C(=O)N[C@@H](C)C(=O)N[C@@H](C)C(=O)N[C@@H](Cc1ccccc1)C(=O)N[C@@H](CC(C)C)C(=O)NC(C)(C)C(=O)N[C@@H](Cc1ccsc1)C(=O)N[C@@H](Cc1csc3ccccc13)C(=O)N[C@@H](CCC(N)=O)C(N)=O)NC(=O)[C@H](CC(C)(C)C)NC(=O)[C@H](CC(=O)O)NC2=O` [I-1981, Ac-PL3-Asp-Npg-S6-Asp-Asp-Ala-Ala-Phe-Leu-Aib-3Thi-BztA-Gln-NH2]: the IC50 was found to be 0.567 µM.
As to `CC(=O)N1CCC[C@]12CCCCC[C@@](C)(C(=O)N[C@@H](CC(=O)O)C(=O)N[C@@H](CC(=O)O)C(=O)N[C@@H](C)C(=O)N[C@@H](C)C(=O)N[C@@H](Cc1ccccc1)C(=O)N[C@@H](CC(C)C)C(=O)NC(C)(C)C(=O)N[C@@H](Cc1ccsc1)C(=O)N[C@@H](Cc1csc3ccccc13)C(=O)N[C@@H](CCC(N)=O)C(N)=O)NC(=O)[C@H](CC(C)(C)C)NC(=O)[C@H](CC(=O)O)NC2=O` [I-1982, Ac-PL3-Asp-Npg-S4-Asp-Asp-Ala-Ala-Phe-Leu-Aib-3Thi-BztA-Gln-NH2], the 50% inhibitory concentration (IC50) is 9.66 µM.
Take `CC(C)C[C@@H]1NC(=O)[C@H](Cc2ccccc2)NC(=O)[C@H](C)NC(=O)[C@H](C)NC(=O)[C@H](Cc2cccc(C(=O)O)c2)NC(=O)[C@H](CC(=O)O)NC(=O)C2(CCCC=CCCCOC(=O)N3CC[C@@](C(=O)N[C@@H](Cc4ccccc4Cl)C(=O)N[C@@H](Cc4csc5ccccc45)C(=O)N[C@@H](CCC(N)=O)C(N)=O)(C3)NC1=O)CCCC=CCCC(=O)N1CCCC1C(=O)N[C@@H](CC(=O)O)C(=O)N[C@@H](CC(C)(C)C)C(=O)N2` (stereo partly drawn) [I-1984, ProAm5-Asp-Npg-B5-Asp-3COOHF-Ala-Ala-Phe-Leu-PyrS2-2C1F-BztA-Gln-NH2]: the IC50 is 0.32 µM.
For the compound `CC(C)C[C@@H]1NC(=O)[C@H](Cc2ccccc2)NC(=O)[C@H](C)NC(=O)[C@H](C)NC(=O)[C@H](Cc2cccc(C(=O)O)c2)NC(=O)[C@H](CC(=O)O)NC(=O)C2(CCCC=CCCCOC(=O)N3CC[C@@](C(=O)N[C@@H](Cc4ccccc4Cl)C(=O)N[C@@H](Cc4csc5ccccc45)C(=O)N[C@@H](CCC(N)=O)C(N)=O)(C3)NC1=O)CCCC=CCCCC(=O)N1CCC[C@@H]1C(=O)N[C@@H](CC(=O)O)C(=O)N[C@@H](CC(C)(C)C)C(=O)N2` (stereo partly drawn) [I-1985, ProAm6-Asp-Npg-B5-Asp-3COOHF-Ala-Ala-Phe-Leu-PyrS2-2C1F-BztA-Gln-NH2], the IC50 is 0.325 µM.

What is called IC50 is the concentration that gives 50% inhibition.
